The source of these data is ChEMBL document CHEMBL1806354 (J Med Chem, 2011).

In data set [1] the test system is Rattus norvegicus. Put plainly: Antiparkinsonian effect in Parkinson's disease rat model of assessed as reduction in L-DOPA-induced dyskinesia at 0.5 to 1.5 mg/kg, ip qd for 21 days treated 15 mins before L-DOPA challenge measured on day 14, 17 and 23. It is filed as functional, organism-based.
Data set [2] has as its system Rattus norvegicus. Nature of the data set: Antiparkinsonian effect in 21 days L-DOPA treated Parkinson's disease rat model assessed as reduction in L-DOPA-induced dyskinesia at 0.5 to 1.5 mg/kg, ip administered 15 mins before L-DOPA challenge on day 23. It is filed as functional, organism-based.
Data set [3] deals with Rattus norvegicus. Put plainly: Antiparkinsonian effect in Parkinson's disease rat model assessed as effect on contralateral rotations measured per 5 mins at 0.5 to 1.5 mg/kg, ip qd for 21 days. It is filed as functional, organism-based.
The subject of data set [4] is Rattus norvegicus. Put plainly: Antiparkinsonian effect in 6-hydroxydopamine lesioned Sprague-Dawley rat Parkinson's disease model assessed as inhibition of L-DOPA-enhanced FosB expression in striatum at 1.5 mg/kg administered qd for 21 days by Western blot analysis. Set-up: dose 1.5 mg/kg. It is filed as functional, organism-based. (In general: A western blot detects proteins with antibodies after separation by electrophoresis.)

The test system of data set [5] is Rattus norvegicus. Nature of the data set: Antiparkinsonian effect in 6-hydroxydopamine lesioned Sprague-Dawley rat Parkinson's disease model assessed as induction of FosB expression in striatum at 1.5 mg/kg administered qd for 21 days by Western blot analysis. Also noted: dose 1.5 mg/kg. It is filed as functional, organism-based.
The target in data set [6] is T1, 5-hydroxytryptamine receptor 1A (Rattus norvegicus) (UniProt P19327).
T1 sequence (whole entry): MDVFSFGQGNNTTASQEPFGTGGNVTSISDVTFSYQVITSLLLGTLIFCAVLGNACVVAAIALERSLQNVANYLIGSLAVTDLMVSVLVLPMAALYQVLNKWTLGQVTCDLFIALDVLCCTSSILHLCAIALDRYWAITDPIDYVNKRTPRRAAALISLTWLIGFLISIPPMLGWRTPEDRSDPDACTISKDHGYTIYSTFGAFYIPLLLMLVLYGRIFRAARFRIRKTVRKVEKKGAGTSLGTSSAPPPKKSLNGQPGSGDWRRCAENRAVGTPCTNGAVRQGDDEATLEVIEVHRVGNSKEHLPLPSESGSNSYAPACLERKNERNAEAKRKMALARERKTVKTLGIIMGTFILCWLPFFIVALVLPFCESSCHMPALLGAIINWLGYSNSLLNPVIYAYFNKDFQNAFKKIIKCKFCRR
Nature of the data set: Effect on 5HT1A receptor-mediated pair pulse ratio in Sprague-Dawley rat median prefrontal cortex at 10 uM by whole-cell voltage clamp assay. It is filed as tissue-based.

For data set [7], the system named is Rattus norvegicus. Nature of the data set: Toxicity in Parkinson's disease rat model of assessed as induction of dyskinesia at 0.5 to 1.5 mg/kg, ip qd for 21 days. It is filed as organism-based. Also noted: dose 0.5-1.5 mg/kg, route intraperitoneal. The conditions noted are these: in vivo, 504 h.
Another data set concerns the target D(1A) dopamine receptor (Homo sapiens, UniProt P21728). Put plainly: Displacement of [3H]SCH23390 from dopamine D1 receptor expressed in HEK293 cells at 10 uM after 50 mins by beta liquid scintillation counter. The data set is classed as cell-based. In general terms: Loss of bound radioactivity is the signal in a displacement assay; it reports binding, not function.

Data set [8] concerns the target T2, D(2) dopamine receptor (Homo sapiens, UniProt P14416). Put plainly: Displacement of [3H]spiperone from dopamine D2 receptor expressed in HEK293 cells after 50 mins by beta liquid scintillation counter. It is filed as cell-based.
The target in data set [9] is 5-hydroxytryptamine receptor 2A (Homo sapiens, UniProt P28223). Nature of the data set: Displacement of [3H]ketanserin from 5-HT2A receptor expressed in CHO cells at 10 uM after 50 mins by beta liquid scintillation counter. The data set is classed as cell-based.
For data set [10], the target named is T2, D(2) dopamine receptor. Nature of the data set: Agonist activity at dopamine D2 receptor expressed in HEK293 cells assessed as stimulation of [35S]GTPgammaS binding after 30 mins. It is filed as functional, cell-based.
Data set [11] addresses T3, 5-hydroxytryptamine receptor 1A (Homo sapiens, UniProt P08908).
T3 sequence (P08908 whole entry): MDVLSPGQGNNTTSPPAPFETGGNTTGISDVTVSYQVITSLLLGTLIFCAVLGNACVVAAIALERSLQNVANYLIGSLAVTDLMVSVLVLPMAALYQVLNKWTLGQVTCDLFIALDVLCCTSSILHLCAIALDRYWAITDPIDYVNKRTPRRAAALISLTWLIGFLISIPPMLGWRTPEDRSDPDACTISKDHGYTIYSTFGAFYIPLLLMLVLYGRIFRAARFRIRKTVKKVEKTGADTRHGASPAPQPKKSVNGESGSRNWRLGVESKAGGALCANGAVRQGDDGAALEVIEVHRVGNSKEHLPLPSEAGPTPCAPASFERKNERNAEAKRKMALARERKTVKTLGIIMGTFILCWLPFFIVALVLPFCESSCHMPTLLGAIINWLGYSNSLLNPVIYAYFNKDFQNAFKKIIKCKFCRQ
Nature of the data set: Agonist activity at 5-HT1A receptor expressed in CHO cells assessed as stimulation of [35S]GTPgammaS binding after 30 mins. The data set is classed as functional, cell-based. (In general: GTPγS resists hydrolysis and so accumulates on activated G proteins.)

In data set [12] the target is T4, Alpha-1A adrenergic receptor (Homo sapiens, UniProt P35348).
T4 sequence (P35348 whole entry): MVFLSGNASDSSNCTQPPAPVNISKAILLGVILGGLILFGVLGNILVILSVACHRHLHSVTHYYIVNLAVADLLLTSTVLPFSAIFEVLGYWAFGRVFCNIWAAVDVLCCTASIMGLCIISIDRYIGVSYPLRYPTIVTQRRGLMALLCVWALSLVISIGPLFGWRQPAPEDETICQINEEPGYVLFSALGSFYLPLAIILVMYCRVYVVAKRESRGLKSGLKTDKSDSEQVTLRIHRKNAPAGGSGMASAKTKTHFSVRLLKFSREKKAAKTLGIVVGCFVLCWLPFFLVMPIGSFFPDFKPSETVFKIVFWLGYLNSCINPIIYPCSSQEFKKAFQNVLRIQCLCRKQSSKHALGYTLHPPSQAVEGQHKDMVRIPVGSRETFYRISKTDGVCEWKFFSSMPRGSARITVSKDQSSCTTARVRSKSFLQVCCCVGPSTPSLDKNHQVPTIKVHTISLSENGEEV
Nature of the data set: Antagonist activity at adrenergic alpha1A receptor expressed in CHO cells assessed as inhibition of adrenaline-induced intracellular calcium level after 3 to 5 mins by Fluo-4/AM assay. It is filed as functional, cell-based.

Data set [13] deals with Beta-2 adrenergic receptor (Homo sapiens, UniProt P07550). Nature of the data set: Antagonist activity at adrenergic beta2 receptor expressed in HEK293 cells co-transfected with Galpha16 assessed as inhibition of adrenaline-induced intracellular calcium after 3 to 5 mins by Fluo-4/AM assay. It is filed as functional, cell-based.

Active and inactive are the calls of the source. The calls are words filed in the database; no cut-off is given here.

T2 sequence (P14416 whole entry): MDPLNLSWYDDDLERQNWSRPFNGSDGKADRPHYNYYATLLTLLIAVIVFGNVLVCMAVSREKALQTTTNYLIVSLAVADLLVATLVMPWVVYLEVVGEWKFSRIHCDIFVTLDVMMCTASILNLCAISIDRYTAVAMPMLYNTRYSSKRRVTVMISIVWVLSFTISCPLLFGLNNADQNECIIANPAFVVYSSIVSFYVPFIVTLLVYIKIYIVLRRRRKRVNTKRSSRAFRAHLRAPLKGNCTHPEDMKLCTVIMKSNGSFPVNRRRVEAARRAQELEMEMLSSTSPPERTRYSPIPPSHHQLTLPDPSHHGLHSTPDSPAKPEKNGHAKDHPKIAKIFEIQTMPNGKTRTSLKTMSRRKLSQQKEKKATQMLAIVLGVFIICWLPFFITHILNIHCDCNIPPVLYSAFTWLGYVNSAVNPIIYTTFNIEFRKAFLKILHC
Beta-2 adrenergic receptor, sequence (P07550 whole entry): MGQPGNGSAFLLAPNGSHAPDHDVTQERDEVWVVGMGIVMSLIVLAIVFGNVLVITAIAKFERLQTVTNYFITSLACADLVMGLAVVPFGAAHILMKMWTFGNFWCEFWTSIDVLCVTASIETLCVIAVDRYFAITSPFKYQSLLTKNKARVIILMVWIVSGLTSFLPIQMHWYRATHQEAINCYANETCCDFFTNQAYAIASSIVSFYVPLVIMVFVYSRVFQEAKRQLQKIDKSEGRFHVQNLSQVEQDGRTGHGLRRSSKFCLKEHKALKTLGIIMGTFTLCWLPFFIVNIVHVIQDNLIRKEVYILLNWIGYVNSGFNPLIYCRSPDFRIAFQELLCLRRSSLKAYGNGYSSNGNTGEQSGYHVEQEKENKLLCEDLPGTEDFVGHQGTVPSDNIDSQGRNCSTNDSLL
D(1A) dopamine receptor, sequence (P21728 whole entry): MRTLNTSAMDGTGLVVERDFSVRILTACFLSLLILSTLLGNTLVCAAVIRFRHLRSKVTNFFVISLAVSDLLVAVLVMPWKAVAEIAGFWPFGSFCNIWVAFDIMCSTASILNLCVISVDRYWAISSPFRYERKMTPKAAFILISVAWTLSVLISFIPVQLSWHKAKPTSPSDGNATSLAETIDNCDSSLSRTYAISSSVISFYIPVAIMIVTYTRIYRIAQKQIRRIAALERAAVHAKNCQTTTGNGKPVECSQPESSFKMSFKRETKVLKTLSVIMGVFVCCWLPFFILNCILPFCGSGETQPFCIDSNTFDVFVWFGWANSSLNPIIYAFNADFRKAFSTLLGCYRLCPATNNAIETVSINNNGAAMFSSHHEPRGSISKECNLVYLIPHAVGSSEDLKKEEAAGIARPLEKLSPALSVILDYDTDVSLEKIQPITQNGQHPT
5-hydroxytryptamine receptor 2A, sequence (P28223 whole entry): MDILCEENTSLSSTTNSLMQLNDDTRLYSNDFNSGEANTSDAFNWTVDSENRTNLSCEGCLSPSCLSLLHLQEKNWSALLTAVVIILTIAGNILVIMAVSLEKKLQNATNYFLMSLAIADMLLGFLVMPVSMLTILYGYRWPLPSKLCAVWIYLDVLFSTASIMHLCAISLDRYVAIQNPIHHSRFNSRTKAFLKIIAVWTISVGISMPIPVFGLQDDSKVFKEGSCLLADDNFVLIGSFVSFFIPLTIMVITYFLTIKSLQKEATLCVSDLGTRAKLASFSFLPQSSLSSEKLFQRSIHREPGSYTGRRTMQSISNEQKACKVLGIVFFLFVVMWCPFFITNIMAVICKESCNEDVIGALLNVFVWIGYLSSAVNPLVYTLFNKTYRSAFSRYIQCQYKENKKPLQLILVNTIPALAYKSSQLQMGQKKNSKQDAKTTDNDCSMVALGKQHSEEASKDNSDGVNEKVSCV

Turning to `CCCN1CCc2cccc3c2[C@H]1Cc1cccc(OC(=O)CCCCC2CCSS2)c1-3` (some centres undefined), the outcome in the data set with Rattus norvegicus [1], in the data set with Rattus norvegicus [3] and in the data set on Rattus norvegicus [4] was Active. Besides, the result in the data set with Rattus norvegicus [2] and in the data set on Rattus norvegicus [5] was inactive. Further, the Activity was 114% in data set [6] and “Non-toxic” in the data set with Rattus norvegicus [7]. The figures for the inhibition (at D(1A) dopamine receptor; in data set [9]) were 55.7% and 48%, respectively. At D(2) dopamine receptor [8], the Ki (in general, a measure of affinity in units of concentration, obtained from inhibition or displacement) stood at 174 nM. In addition, the figures for the EC50 (at D(2) dopamine receptor [10]; in [11]) were 320 nM and 190 nM, respectively. The IC50 in data set [12] and in data set [13] was greater than 10000 nM throughout.
